Results taken from PubChem BioAssay (NCI).
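Interpolation was linear, between the two tested concentrations surrounding the appropriate level; five concentrations were tested over 48 hours in 96-well plates. TGI: concentration producing complete growth inhibition.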

How the values were obtained:
Assay in all cases: NCI tumour cell line growth inhibition, 48 h
MALME-3M melanoma = system: MALME-3M melanoma
NCI-H460 lung = system: NCI-H460 lung
OVCAR-8 ovarian = system: OVCAR-8 ovarian
SNB-75 CNS = system: SNB-75 CNS
ACHN renal = system: ACHN renal
SF-268 CNS = system: SF-268 CNS
SN12C renal = system: SN12C renal
MCF7 breast = system: MCF7 breast
A549 NSCLC = system: A549 NSCLC
M14 melanoma = system: M14 melanoma

| SMILES | TGI (MALME-3M melanoma) | TGI (NCI-H460 lung) | TGI (OVCAR-8 ovarian) | TGI (SNB-75 CNS) | TGI (ACHN renal) | TGI (SF-268 CNS) | TGI (SN12C renal) | TGI (MCF7 breast) | TGI (A549 NSCLC) | TGI (M14 melanoma) |
| --- | --- | --- | --- | --- | --- | --- | --- | --- | --- | --- |
| COC(=O)c1cc(C)ccc1CC(Cc1cccc(C)c1)C(=O)OC (stereo not given) | > 100 µM | > 100 µM | > 100 µM | > 100 µM | > 100 µM | 53.9 µM | > 100 µM | > 100 µM | > 100 µM | > 100 µM |
| CCOC(=O)/C(=C\NCC(O)c1ccccc1)c1nc2ccccc2[nH]1 (stereo not given) | 52 µM | 50.5 µM | 69.9 µM | 58.2 µM | 28.8 µM | 40.5 µM | > 100 µM | 69 µM | > 100 µM | 93.5 µM |
| CC(C)Oc1c(-c2c(OC(C)C)c(=O)c2=O)c(=O)c1=O | 4 µM | > 100 µM | > 71.9 µM | > 71.2 µM | > 100 µM | > 75.9 µM | > 62.7 µM | > 41.8 µM | > 100 µM | > 100 µM |
| Cn1ccnc1S/C(=C\C=C(C#N)C#N)c1ccc(Cl)cc1 | 3.27 µM | 27.2 µM | 3.57 µM | 12.5 µM | 2.09 µM | 14.4 µM | > 25.7 µM | 2.62 µM | 22.6 µM | 5.02 µM |
| CC(=O)NNc1nc(C)c(C(/C=C/c2ccc3c(c2)OCO3)=N/Nc2ccccc2)s1 | > 100 µM | > 100 µM | > 100 µM | > 100 µM | > 100 µM | > 100 µM | > 100 µM | > 100 µM | > 100 µM | > 100 µM |
| COc1cc2c(cc1C[N+](C)(C)CSc1ccccc1)-c1ccccc1CC2 | 6.23 µM | 9.43 µM | 14.6 µM | 6.17 µM | 28.6 µM | 18.5 µM | 19.2 µM | 16.4 µM | 45.8 µM | 7.95 µM |
| CCC1C(=O)C[C@H]2[C@@H]3C(O)CC4=CC(=O)CC[C@]4(C)[C@H]3CC[C@]12C (stereo not given in full) | > 50 µM | > 50 µM | > 50 µM | > 50 µM | > 50 µM | > 50 µM | > 50 µM | > 50 µM | > 50 µM | > 50 µM |
| Cc1c(-c2c(C)c3ccccc3n2S(=O)(=O)c2ccccc2)n(S(=O)(=O)c2ccccc2)c2ccccc12 | 13.1 µM | 16.3 µM | > 100 µM | > 31.6 µM | > 100 µM | > 100 µM | > 100 µM | > 100 µM | > 100 µM | > 100 µM |
| Cc1cnoc1NC1=CC(=O)C(=O)c2ccccc21 | 9.81 µM | > 100 µM | > 100 µM | > 100 µM | > 100 µM | 94.3 µM | 3.53 µM | 16.4 µM | 63.8 µM | > 100 µM |
| Cn1ccnc1Sc1ccc(/C=N/NC(=O)c2ccccc2O)cc1[N+](=O)[O-] | > 100 µM | > 100 µM | > 100 µM | > 100 µM | > 100 µM | > 100 µM | > 100 µM | > 100 µM | > 100 µM | > 100 µM |
| CCC(CCCN)Nc1cc(OC)cc2cccnc12 (stereo not given) | > 100 µM | > 100 µM | > 100 µM | > 100 µM | > 100 µM | > 100 µM | > 100 µM | > 100 µM | > 100 µM | > 100 µM |
| COc1cccc(N2C(=O)C3c4[nH]c5ccccc5c4C4c5ccccc5CCC4C3C2=O)c1 (stereo not given) | > 9.13 µM | > 10 µM | 9.9 µM | 6.3 µM | > 10 µM | > 10 µM | > 10 µM | > 10 µM | > 10 µM | > 10 µM |
| CCN(CC)Cc1nc2sc3c(c2c(=O)n1-c1ccccc1)CCCC3 | 45.5 µM | 40.8 µM | 32.7 µM | 47.4 µM | 55.2 µM | 50.3 µM | 37.8 µM | 36 µM | 55 µM | 30.2 µM |
| Cc1nc2ccc(S(=O)(=O)Nc3ccc(Cl)cc3)cc2c(=O)n1NC(=O)CNc1ccc(Cl)cc1 | > 100 µM | > 100 µM | > 100 µM | > 100 µM | > 100 µM | > 100 µM | > 100 µM | > 100 µM | > 100 µM | > 100 µM |
| COc1cc2c3cc1Oc1c(O)c(OC)cc4c1[C@H](Cc1ccc(cc1)Oc1cc(ccc1O)C[C@H]3N(C)CC2)N(C)CC4 | 36.8 µM | 26.8 µM | 37.3 µM | 43 µM | 61 µM | 47.3 µM | 34.6 µM | 44.4 µM | 39.6 µM | 5.62 µM |
| COc1ccc2nc3cc(Cl)ccc3c(NCCCCCC(=O)NC(COc3cnc4c(ccc5cccnc54)c3)COc3cnc4c(ccc5cccnc54)c3)c2c1 | > 100 µM | 23.1 µM | > 100 µM | 4.78 µM | > 100 µM | 40.2 µM | > 100 µM | 17.7 µM | > 100 µM | > 100 µM |
| Oc1ccc(/C=C\c2nnc(/C=C\c3ccc(O)c(O)c3)s2)cc1O | 17.7 µM | 15.6 µM | > 48.4 µM | 15.3 µM | 15.2 µM | 14.8 µM | 24 µM | 12.8 µM | > 52.8 µM | 26 µM |
| Cc1ccc2c(=O)cc(-c3csc4ccccc34)[nH]c2n1 | 54.6 µM | > 33.9 µM | 5.55 µM | > 51.2 µM | 12.9 µM | > 53.2 µM | 10.9 µM | 18.1 µM | 19.5 µM | 0.031 µM |
| C=CC(=O)N1C/C(=C\c2ccc(N(C)C)cc2)C(=O)/C(=C/c2ccc(N(C)C)cc2)C1 | > 100 µM | > 100 µM | > 100 µM | > 100 µM | > 100 µM | > 100 µM | > 100 µM | > 100 µM | > 100 µM | > 100 µM |
